In patent publication US20130029937A1, “TREATMENT OF SURFACTANTS” (SOLAEROMED INC., priority 2007, published 2013):

What was measured:
[1] = CBS dynamic cycling of BLES with added (oxidized) phospholipids; assay type: physicochemical, bovine; conditions: non-oxidized lipid in BLES containing cholesterol, exposure to ambient air
Description: In this Example, the role of oxidized polyunsaturated phospholipids in causing cholesterol-dependent surfactant dysfunction was studied. Oxidation of surfactant by the Fenton-like reaction or in the presence of ROS in the inflamed lung results in the formation of lipid-peroxides with polyunsaturated phospholipids the principal target. […] This introduction of a hydrophilic group in the formerly hydrophobic region will disrupt lipid packing. […] This is consistent with peroxidized PLPC, CL and other polyunsaturated phospholipids present in surfactant causing dysfunction together with cholesterol. […]
To ensure accurate mixing, additional lipids were added to lipid extracts of BLES or oxBLES as organic solutions. […] Phospholipid concentration was assessed using a phosphate assay (Gentaur Molecular Products, Kampenhout, Belgium) after liberation of free phosphate (Duck-Chong C G (1979) A rapid sensitive method for determining phospholipid phosphorus involving digestion with magnesium nitrate. Lipids 14: 492-497). […] BLES contained 2.60% cholesterol (w/w phospholipids) as determined using an enzymatic assay for cholesterol (Amplex Red Cholesterol Assay, Invitrogen, Eugene, Oreg., USA). hSP-A was added to dried films when indicated to a final concentration of 5% (w/w phospholipids). […]

[2] = captive bubble surfactometer (CBS), oxidized BLES with added cholesterol; assay type: physicochemical, cattle; conditions: MβCD (20 mmol) in the aqueous phase
Protocol: In a model study, 0, 5 and 10 weight percent cholesterol was added to a ROS-exposed cattle lipid surfactant extract as an example of how even a normal (physiological) amount of cholesterol renders surfactant exposed to ROS and its derivatives dysfunctional; the function of the surfactant model was determined in a captive bubble surfactometer (CBS).
Surface activity of surfactant was determined with a computer-controlled captive bubble surfactometer (CBS) as described in detail by Gunasekara et al. (Gunasekara L, Schoel W M, Schürch S & Amrein M W (2008) A comparative study of mechanisms of surfactant inhibition. BBA—Biomembranes 1778: 433-444), with two important changes: 1) A transparent capillary was used to deposit a ˜1.0 μL bolus of 27 mg/mL surfactant near the air-buffer interface. The quantity and concentration of surfactant were chosen to minimize effects caused by insufficient surfactant or bulk phase adsorption. This amount of native BLES reliably reproduces minimum and maximum surface tensions as measured in situ at functional reserve capacity and total lung capacity (<1 mN/m and ˜30 mN/m, respectively) (Bachofen H & Schtirch S (2001) Alveolar surface forces and lung architecture. Comparative Biochemistry and Physiology—Part A: Molecular & Integrative Physiology 129: 183-193). […]

[3] = murine model of acute lung injury (acid injury), MβCD aerosol, surfactant function; assay type: in vivo, mice
Description: In this study, a murine model of acute lung injury (ALI), the earliest phase of ARDS, was created by acid injury of the lung according to published procedures (Allen, G. B. et al. Neither fibrin nor plasminogen activator inhibitor-1 deficiency protects lung function in a mouse model of acute lung injury. American Journal of Physiology-Lung Cellular and Molecular Physiology 296, L277-L285 (2009)) and analyzed with respect to lung mechanics, oxygenation, lung histology, lung ultrastructure, surfactant function and composition (FIGS. 3A-E). Elastance (or its inverse, compliance) and pressure-volume curves are commonly used to assess lung function in ALI/ARDS (JONSON, B. et al. Pressure-volume curves and compliance in acute lung injury. American journal of respiratory and critical care medicine 159, 1172-1178 (1999)).

Compound	surfactant function over time [1]	surface tension [2]	surfactant function in vivo ([3]; in the lung, given as an aerosol)	minimum surface tension of surfactant ([3]; injured mice treated with an MβCD-aerosol) [mN/m]
CCCCC/C=C\C/C=C\CCCCCCCC(=O)O[C@H](COC(=O)CCCCCCCCCCCCCCC)COP(=O)([O-])OCC[N+](C)(C)C [PLPC, 1-palmitoyl-2-linoleoyl-sn-glycero-3-phosphocholine]	became dysfunctional after several hours	–	–	–
CCCCC/C=C\C/C=C\CCCCCCCC(=O)OC[C@H](COP(=O)(O)OCC(O)COP(=O)(O)OC[C@H](COC(=O)CCCCCCC/C=C\C/C=C\CCCCC)OC(=O)CCCCCCC/C=C\C/C=C\CCCCC)OC(=O)CCCCCCC/C=C\C/C=C\CCCCC (some centres unmarked) [CL, 1′,3′-Bis[1,2-dilinoleoyl-sn-glycero-3-phospho]-sn-glycerol]	became dysfunctional after several hours	–	–	–
methyl-β-cyclodextrin [MβCD]	–	almost zero	can restore surfactant function	< 10
